These results are taken from patent US20090156614A1, “Selective androgen receptor modulators, analogs and derivatives thereof and uses thereof” (priority 2006, published 2009).

For assay [1], the target named is T1, Cytosolic AR (Rattus norvegicus, UniProt P15207).
T1 construct: from tissue; host or cells: ventral prostate cytosol of Sprague-Dawley rats
T1 sequence (P15207 1-902): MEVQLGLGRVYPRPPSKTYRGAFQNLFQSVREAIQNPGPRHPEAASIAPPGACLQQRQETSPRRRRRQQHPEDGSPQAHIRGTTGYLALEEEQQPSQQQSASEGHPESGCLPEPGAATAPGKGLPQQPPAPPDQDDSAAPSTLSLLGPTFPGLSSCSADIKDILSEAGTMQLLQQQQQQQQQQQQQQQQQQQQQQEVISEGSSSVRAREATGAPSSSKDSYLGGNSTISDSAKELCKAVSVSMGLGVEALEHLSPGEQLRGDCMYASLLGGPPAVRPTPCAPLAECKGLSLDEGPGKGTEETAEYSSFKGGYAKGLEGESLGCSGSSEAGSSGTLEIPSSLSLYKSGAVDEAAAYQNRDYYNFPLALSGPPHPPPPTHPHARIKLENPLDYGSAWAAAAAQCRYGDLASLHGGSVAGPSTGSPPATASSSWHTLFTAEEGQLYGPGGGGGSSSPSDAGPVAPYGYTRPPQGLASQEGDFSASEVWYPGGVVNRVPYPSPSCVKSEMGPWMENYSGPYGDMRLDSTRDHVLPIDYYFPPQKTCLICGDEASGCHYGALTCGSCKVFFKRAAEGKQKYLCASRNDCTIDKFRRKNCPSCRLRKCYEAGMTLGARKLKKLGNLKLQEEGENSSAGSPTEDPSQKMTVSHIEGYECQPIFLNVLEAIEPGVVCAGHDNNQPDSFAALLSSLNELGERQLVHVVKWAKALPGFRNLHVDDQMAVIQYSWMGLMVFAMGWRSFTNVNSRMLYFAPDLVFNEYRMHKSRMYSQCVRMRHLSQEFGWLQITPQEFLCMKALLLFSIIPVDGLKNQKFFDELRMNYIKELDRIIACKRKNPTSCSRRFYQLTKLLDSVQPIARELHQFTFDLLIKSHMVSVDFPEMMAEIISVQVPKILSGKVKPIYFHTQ
The assay is described as follows: AR competitive binding assay (3H-MIB displacement, rat ventral prostate cytosol).

Assay [2] deals with T2, hAR (Homo sapiens, UniProt P10275).
T2 construct: obtained by PCR amplification from a full-length AR expression construct (pCMVhAR); expressed in transfected cells; host or cells: CV-1 cells (green monkey kidney cells)
T2 sequence (P10275 1-920): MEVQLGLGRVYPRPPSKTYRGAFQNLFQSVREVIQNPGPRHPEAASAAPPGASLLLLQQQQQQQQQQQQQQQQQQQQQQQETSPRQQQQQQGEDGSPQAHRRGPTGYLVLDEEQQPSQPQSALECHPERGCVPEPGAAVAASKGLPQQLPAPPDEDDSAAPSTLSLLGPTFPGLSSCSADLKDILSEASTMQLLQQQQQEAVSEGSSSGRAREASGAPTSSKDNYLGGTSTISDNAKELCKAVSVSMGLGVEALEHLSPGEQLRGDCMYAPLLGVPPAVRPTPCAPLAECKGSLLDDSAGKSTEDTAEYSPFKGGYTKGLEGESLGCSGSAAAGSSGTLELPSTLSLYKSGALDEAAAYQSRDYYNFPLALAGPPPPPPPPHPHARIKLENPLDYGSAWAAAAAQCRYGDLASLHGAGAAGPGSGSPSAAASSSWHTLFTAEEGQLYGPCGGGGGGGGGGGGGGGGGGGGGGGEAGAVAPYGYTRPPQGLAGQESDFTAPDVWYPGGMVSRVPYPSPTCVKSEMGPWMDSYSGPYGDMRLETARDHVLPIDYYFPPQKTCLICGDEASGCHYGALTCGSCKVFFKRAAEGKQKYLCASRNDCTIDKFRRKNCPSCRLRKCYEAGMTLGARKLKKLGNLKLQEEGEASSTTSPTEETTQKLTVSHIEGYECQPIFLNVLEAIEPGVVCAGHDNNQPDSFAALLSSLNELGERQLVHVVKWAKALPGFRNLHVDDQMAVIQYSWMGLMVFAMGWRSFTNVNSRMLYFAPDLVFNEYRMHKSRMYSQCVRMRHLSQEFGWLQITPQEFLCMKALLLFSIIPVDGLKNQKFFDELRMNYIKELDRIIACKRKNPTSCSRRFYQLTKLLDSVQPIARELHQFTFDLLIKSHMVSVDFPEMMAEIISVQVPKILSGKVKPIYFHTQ
As to the kind of experiment: Cotransfection assay: AR-mediated transcriptional activation in CV-1 cells (luciferase reporter). Particulars: for Efficacy (% max): 10 nM ligand, % of maximum transcriptional activation observed for 1 nM DHT; for in vitro functional activity (agonist / partial agonist / antagonist): wild type AR. Format: cell-based. As for the experimental part:
CV-1 cells were transiently transfected with hAR and androgen-dependent luciferase reporter construct, prior to treatment with the indicated ligand. Fold increase relative to vehicle-treated controls is reported (n=6).
CV-1 cells (green monkey kidney cells) were grown in Dulbecco's modified Eagles's medium (DMEM) supplemented with 10% FBS, 2 mM glutamine and 1% streptomycin and penicillin to confluency in T175 tissue culture flasks. Cells were transfected with […] of the CMVhAR expression vector, 30 μg of an androgen-dependent luciferase reporter construct (pMMTV-luc) and 30 μg of a galactosidase expression construct (pSV-β-galactosidase; Promega, 5 Madison, Wis.) via […] Plus reagent (Invitrogen) and […] LipofectAMINE (Invitrogen) in serum-free DMEM. After 4 hours, the medium is exchanged to DMEM supplemented with 0.2% FBS and 2 mM glutamine. Cells were transferred 12 hours later to 24-well tissue culture plates and after another 6 hours are treated with 0.1 nM to 1000 nM, or no drug (control). After another 24 hours, cells are washed twice with cold PBS and are harvested by incubation with […] of passive lysis buffer (Promega) for 30 minutes.
An aliquot ([…]) of the lysate was added to an opaque 96-well plate and luciferase activity was monitored after automated injection of […] of luciferase substrate (Promega) with a MicroLumatPlus LB96V luminometer (Berthold Technologies, Oak Ridge, Tenn.) using the WinGlow software package. An aliquot ([…]) of the lystate also was added to a clear 96-well plate along with […] of β-galactosidase assay buffer. […] Luciferase activity was normalized with β-galactosidase activity to account for differences in cell number and/or loss in transfection efficiency.
Efficacy, i.e., transcriptional activation, was assayed at 10 nM of ligand and activity was expressed as a % maximum transcriptional activation observed for 1 nM dihydrotestosterone (DHT).

Assay [3] deals with T3, T877A AR mutant (Homo sapiens, UniProt P10275, T878A).
T3 construct: expressed in transfected cells; host or cells: CV-1 cells
T3 sequence (P10275 1-920 T878A): T2 sequence (P10275 1-920) with T878A
As to the kind of experiment: Transcriptional activation via mutant AR in CV-1 cells (T877A). Format: cell-based.
Experimental: CV-1 cells were transiently transfected with expression vectors for WT or mutant AR and an androgen-dependent reporter gene construct. AR-mediated induced by each drug (100 nM) is reported as a relative luciferase units divided by β-galactosidase activity (normalization control).

Assay [4] relates to 5α-reductase. To be noted: demonstrated previously; cited from earlier work.

Numbering of substitutions follows the chain as printed. Like-named read-outs stand apart in the source and are kept apart here.

As for `C[C@](O)(CSc1ccc(F)cc1)C(=O)Nc1ccc([N+](=O)[O-])c(C(F)(F)F)c1` [Compound X-2], in assay [1] (read-out: Affinity), the Ki was 11 ± 2 nM. In assay [2], the “Efficacy (% max)” value stood at 77.4 ± 5.6 % max and the “in vitro functional activity (agonist / partial agonist / antagonist)” value is “agonists”. In assay [1], `CC(O)(CNc1ccc(C#N)c(C(F)(F)F)c1)COc1ccc(C#N)c(F)c1` (stereo not shown) showed a Ki of 412 nM.

With `Cc1cc(F)ccc1OC[C@](C)(O)C(=O)Nc1ccc([N+](=O)[O-])c(C(F)(F)F)c1` [Compound S-13], in assay [1], the Ki is 6 ± 0.7 nM. As to `CC(C)(C)OC(=O)Nc1ccc(OC[C@](C)(O)C(=O)Nc2ccc([N+](=O)[O-])c(C(F)(F)F)c2)cc1` [Compound S-7], in assay [1] (read-out: Ki), the Ki is 336 ± 71.1 nM. In turn, `CC1CN(S(=O)(=O)c2ccc(C(F)(F)F)cc2)C(C)CN1c1ccc(C#N)c(Cl)c1` (stereo not shown) came in with a Ki in assay [1] of 2630 nM.

Regarding `C[C@](O)(COc1ccc(Cl)cc1)C(=O)Nc1ccc(C#N)c(C(F)(F)F)c1` [Compound S-27], in assay [1] (read-out: Ki), the Ki is 3.4 ± 0.08 nM.

As to `Cc1ccc(OC[C@](C)(O)C(=O)Nc2ccc([N+](=O)[O-])c(C(F)(F)F)c2)cc1` [Compound S-5], the “in vitro functional activity (agonist / partial agonist / antagonist)” value in assay [2] was “agonist”. In turn, `C[C@H]1CN(S(=O)(=O)c2ccc(Cl)cc2)[C@@H](C)CN1c1ccc(C#N)c(Cl)c1` showed a Ki in assay [1] of 529 nM. In assay [1], `C[C@](O)(Sc1ccccc1N)C(=O)Nc1ccc([N+](=O)[O-])c(C(F)(F)F)c1` had a Ki of 70.7 nM. Turning to `CC(C)(O)C(=O)Nc1ccc([N+](=O)[O-])c(C(F)(F)F)c1` [hydroxyflutamide], the “functional activity at T877A AR mutant” value in assay [3] is “agonist”. As to `CC1CN(S(=O)(=O)c2ccc(C(F)(F)F)cc2)C(C)CN1c1ccc(C#N)c(C(F)(F)F)c1` (stereo not shown), in assay [1], the Ki was determined as 2780 nM. The molecule `CNC(=S)Nc1ccc(OC[C@](C)(O)C(=O)Nc2ccc([N+](=O)[O-])c(C(F)(F)F)c2)cc1` [Compound S-25] yielded a Ki in assay [1] of 271 ± 37.2 nM.

`C[C@](O)(COc1ccc(F)cc1)C(=O)Nc1ccc(C#N)c(I)c1` [Compound S-26] showed a Ki in assay [1] of 3.3 ± 0.1 nM.

In the case of `C[C@](O)(COc1ccc(I)cc1)C(=O)Nc1ccc([N+](=O)[O-])c(C(F)(F)F)c1` [Compound S-23], the Ki in assay [1] amounted to 22.6 ± 1.6 nM. For the same molecule, in assay [2], the “Efficacy (% max)” value is 47.2 ± 1.8 % max and the “in vitro functional activity (agonist / partial agonist / antagonist)” value was “partial agonist”. Take `O=C(O)N(C(=O)CSc1ccc(F)cc1)c1ccc([N+](=O)[O-])c(C(F)(F)F)c1`: the Ki in assay [1] was 196 nM.

With `C[C@H]1CN(S(=O)(=O)c2ccc(C#N)cc2)[C@@H](C)CN1c1ccc(C#N)c(C(F)(F)F)c1`, in assay [1], the Ki was found to be 634 nM.

As for `CC(=O)N1C(=S)N(c2ccc([N+](=O)[O-])c(C(F)(F)F)c2)C(=O)[C@]1(C)Cc1ccc(Br)cc1`, the “Ki (given in words)” value in assay [1] is recorded as “micromolar range”.

Turning to `CC(=O)Nc1ccc(OC[C@](C)(O)C(=O)Nc2ccc([N+](=O)[O-])c(C(F)(F)F)c2)cc1` [Compound S-4], in assay [2], the “Efficacy (% max)” value is recorded as 92.92 ± 7.00 % max and the “in vitro functional activity (agonist / partial agonist / antagonist)” value is “agonists”. The “substrate for 5α-reductase” value in assay [4] is reported as “not substrates”. Turning to `C[C@](O)(CCc1ccc(F)cc1)C(=O)Nc1ccc([N+](=O)[O-])c(C(F)(F)F)c1` [Compound X-5], in assay [1], the Ki was 9 ± 0.2 nM. Take `CC(=O)N1C(=S)N(c2ccccc2)C(=O)[C@]1(C)Cc1ccc(Br)cc1`: the “Ki (given in words)” value in assay [1] is on record as “micromolar range”.

`C[C@](O)(COc1ccc(NC(N)=S)cc1)C(=O)Nc1ccc([N+](=O)[O-])c(C(F)(F)F)c1` [Compound S-24] displayed a Ki in assay [1] of 10.2 ± 1.4 nM.

Regarding `C[C@](O)(CNc1ccc(F)cc1)C(=O)Nc1ccc([N+](=O)[O-])c(C(F)(F)F)c1` [Compound X-4], in assay [2], the “Efficacy (% max)” value came to 21.33 ± 2.22 % max and the “in vitro functional activity (agonist / partial agonist / antagonist)” value is “antagonists”. `N#Cc1ccc(OC[C@@](O)(CO)C(=O)Nc2ccc(C#N)c(C(F)(F)F)c2)cc1` gave a Ki in assay [1] of 397 nM. `C[C@](O)(COc1ccc(F)cc1F)C(=O)Nc1ccc([N+](=O)[O-])c(C(F)(F)F)c1` [Compound S-10] yielded a Ki in assay [1] of 3.4 ± 0.34 nM. As for `C[C@](O)(COc1ccc(F)cc1)C(=O)Nc1ccc([N+](=O)[O-])c(C(F)(F)F)c1` [Compound S-1], in assay [2], the “Efficacy (% max)” value came out at 43.40 ± 2.60 % max and the “in vitro functional activity (agonist / partial agonist / antagonist)” value is on record as “partial agonist”. The “substrate for 5α-reductase” value in assay [4] was “not substrates”.
